# Reference: ChEMBL document CHEMBL4251601 (Eur J Med Chem, 2018)
# What was measured:
# [1] = Half life in Sprague-Dawley rat at 5 mg/kg, po administered as single dose by LC-MS/MS analysis; type: ADME, organism-based; settings: in vivo
# [2] = biological target: Calcium/calmodulin-dependent protein kinase type II subunit beta (Homo sapiens) (UniProt Q13554); assay: Inhibition of recombinant full length human His-tagged CAMK2B expressed in baculovirus expression system at 0.1 uM by Z'-Lyte assay relative to control
# [3] = biological target: Casein kinase I isoform alpha (Homo sapiens) (UniProt P48729); assay: Inhibition of recombinant full length human GST-tagged CK1alpha expressed in baculovirus expression system at 0.1 uM by Z'-Lyte assay relative to control
# [4] = biological target: Tyrosine-protein kinase JAK3 (Homo sapiens) (UniProt P52333); assay: Inhibition of recombinant human GST-tagged JAK3 expressed in baculovirus expression system at 0.1 uM by TR-FRET assay relative to control
# [5] = biological target: Mitogen-activated protein kinase kinase kinase 9 (Homo sapiens) (UniProt P80192); assay: Inhibition of recombinant human GST-tagged MLK1 expressed in baculovirus expression system at 0.1 uM by Z'-Lyte assay relative to control
# [6] = biological target: Platelet-derived growth factor receptor beta (Homo sapiens) (UniProt P09619); assay: Inhibition of recombinant human His-tagged PDGFRbeta cytoplasmic domain expressed in baculovirus expression system at 0.1 uM by Z'-Lyte assay relative to control
# [7] = biological target: PI3-kinase p110-alpha/p85-alpha (Homo sapiens) (UniProt P27986+P42336); assay: Inhibition of recombinant full-length human N-terminal His6-tagged p110alpha/p85alpha expressed in baculovirus infected Sf21 cells at 0.1 uM by ADP-Glo assay relative to control
# [8] = biological target: Serine/threonine-protein kinase PLK1 (Homo sapiens) (UniProt P53350); assay: Inhibition of recombinant human full length His-tagged PLK1 expressed in baculovirus expression system at 0.1 uM by Z'-Lyte assay relative to control
# [9] = test system: Proto-oncogene tyrosine-protein kinase receptor Ret (Homo sapiens), P07949 [V804L]; assay: Inhibition of recombinant human GST-tagged RET V804L mutant expressed in baculovirus expression system at 0.1 uM by Z'-Lyte assay relative to control
# [10] = biological target: Cyclin-dependent kinase 4/cyclin D1 (Homo sapiens) (UniProt P11802+P24385); assay: Inhibition of recombinant full length human GST-tagged CDK4/Cyclin-D1 expressed in baculovirus expression system at 1 uM by TR-FRET assay relative to control
# [11] = biological target: RAC-gamma serine/threonine-protein kinase (Homo sapiens) (UniProt Q9Y243); assay: Inhibition of recombinant full length human His-tagged AKT3 expressed in baculovirus expression system at 1 uM by TR-FRET assay relative to control
# [12] = test system: ALK tyrosine kinase receptor (Homo sapiens), Q9UM73 [C1156Y]; assay: Inhibition of recombinant N-terminal GST-tagged human ALK cytoplasmic domain (1058 to 1620 residues) C1156Y mutant expressed in baculovirus expression system at 1 uM by TR-FRET assay relative to control
# [13] = biological target: Calcium/calmodulin-dependent protein kinase type II subunit beta (Homo sapiens) (UniProt Q13554); assay: Inhibition of recombinant full length human His-tagged CAMK2B expressed in baculovirus expression system at 1 uM by Z'-Lyte assay relative to control
# [14] = biological target: Tyrosine-protein kinase BTK (Homo sapiens) (UniProt Q06187); assay: Inhibition of recombinant full length human His-tagged BTK expressed in baculovirus expression system at 1 uM by TR-FRET assay relative to control
# [15] = biological target: Serine/threonine-protein kinase Chk2 (Homo sapiens) (UniProt O96017); assay: Inhibition of recombinant full length human His-tagged CHEK2 expressed in baculovirus expression system at 1 uM by Z'-Lyte assay relative to control
# [16] = biological target: Ephrin type-B receptor 2 (Homo sapiens) (UniProt P29323); assay: Inhibition of recombinant human GST-tagged EPHB2 cytoplasmic domain (616 to 884 residues) expressed in baculovirus expression system at 1 uM by Z'-Lyte assay relative to control
# [17] = biological target: G protein-coupled receptor kinase 3 (Homo sapiens) (UniProt P35626); assay: Inhibition of recombinant human full length GST-tagged GRK3 expressed in baculovirus expression system at 1 uM by Z'-Lyte assay relative to control
# [18] = biological target: Tyrosine-protein kinase JAK1 (Homo sapiens) (UniProt P23458); assay: Inhibition of recombinant human GST-tagged JAK1 expressed in baculovirus expression system at 1 uM by TR-FRET assay relative to control
# [19] = biological target: Tyrosine-protein kinase Mer (Homo sapiens) (UniProt Q12866); assay: Inhibition of recombinant human GST-tagged MERTK (578 to 872 residues) expressed in baculovirus expression system at 1 uM by Z'-Lyte assay relative to control
# [20] = biological target: Serine/threonine-protein kinase PAK 1 (Homo sapiens) (UniProt Q13153); assay: Inhibition of recombinant human full length GST-tagged PAK1 expressed in baculovirus expression system at 1 uM by Z'-Lyte assay relative to control
# [21] = biological target: Serine/threonine-protein kinase PAK 2 (Homo sapiens) (UniProt Q13177); assay: Inhibition of recombinant human full length GST-tagged PAK2 expressed in baculovirus expression system at 1 uM by Z'-Lyte assay relative to control
# [22] = biological target: cAMP-dependent protein kinase catalytic subunit alpha (Homo sapiens) (UniProt P17612); assay: Inhibition of recombinant human His-tagged PKA expressed in Escherichia coli at 1 uM by Z'-Lyte assay relative to control
# [23] = biological target: Serine/threonine-protein kinase PLK1 (Homo sapiens) (UniProt P53350); assay: Inhibition of recombinant human full length His-tagged PLK1 expressed in baculovirus expression system at 1 uM by Z'-Lyte assay relative to control
# [24] = biological target: RAF proto-oncogene serine/threonine-protein kinase (Homo sapiens) (UniProt P04049); assay: Inhibition of RAF1 (unknown origin) at 1 uM by TR-FRET assay relative to control
# [25] = Cmax in ICR mouse at 5 mg/kg, po administered as single dose by LC-MS/MS analysis; type: ADME, organism-based; design: dose 5 mg/kg, route oral; settings: in vivo
# [26] = Oral bioavailability in ICR mouse at 5 mg/kg administered as single dose by LC-MS/MS analysis; type: ADME, organism-based; settings: in vivo
# [27] = AUC (0 to infinity) in CD-1 mouse plasma at 10 mg/kg, po administered as single dose by LC-MS/MS analysis; type: ADME, organism-based; design: dose 10 mg/kg, time infinity, route oral
# [28] = test system: U-87 MG; assay: Antitumor activity against luciferase-fused human U87MG cells orthotopically xenografted in nude mouse assessed as tumor growth inhibition at 3.125 mg/kg, po qd for 4 weeks by bioluminescence imaging relative to control; type: functional, U-87MG ATCC; settings: 672 h, read-out: TGI
# [29] = test system: U-87 MG; assay: Antitumor activity against luciferase-fused human U87MG cells orthotopically xenografted in nude mouse assessed as increase in mouse life span at 12.5 mg/kg, po qd for 5 weeks relative to control; type: functional, U-87MG ATCC; settings: 840 h
# [30] = test system: Mus musculus; assay: Toxicity in nude mouse orthotopically xenografted with luciferase-fused human U87MG cells assessed as body weight loss at 3.125 to 25 mg/kg, po qd for 5 weeks; type: organism-based; settings: in vivo, 840 h
# [31] = test system: Mitogen-activated protein kinase kinase kinase 7; assay: Inhibition of TAK1 (unknown origin) at 0.1 uM by TR-FRET assay relative to control; settings: Homo sapiens
# Chain of Serine/threonine-protein kinase PLK1 (Homo sapiens) (P53350 whole entry): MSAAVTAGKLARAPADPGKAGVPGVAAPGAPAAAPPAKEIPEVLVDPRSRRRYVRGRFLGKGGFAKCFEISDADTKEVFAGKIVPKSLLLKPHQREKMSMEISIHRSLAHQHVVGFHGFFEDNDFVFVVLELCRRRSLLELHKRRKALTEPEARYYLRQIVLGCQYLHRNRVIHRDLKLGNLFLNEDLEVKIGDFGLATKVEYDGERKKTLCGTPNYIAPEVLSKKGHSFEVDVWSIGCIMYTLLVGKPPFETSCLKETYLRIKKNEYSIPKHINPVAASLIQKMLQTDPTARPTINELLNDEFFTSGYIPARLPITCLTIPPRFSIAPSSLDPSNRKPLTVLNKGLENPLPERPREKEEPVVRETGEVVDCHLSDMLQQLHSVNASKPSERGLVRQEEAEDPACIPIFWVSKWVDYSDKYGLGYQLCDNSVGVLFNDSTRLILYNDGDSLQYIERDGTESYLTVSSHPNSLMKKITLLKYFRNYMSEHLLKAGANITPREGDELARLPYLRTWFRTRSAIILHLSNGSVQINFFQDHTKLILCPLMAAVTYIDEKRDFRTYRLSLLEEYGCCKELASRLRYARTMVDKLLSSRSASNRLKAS
# Chain of Calcium/calmodulin-dependent protein kinase type II subunit beta (Homo sapiens) (Q13554 whole entry, canonical isoform): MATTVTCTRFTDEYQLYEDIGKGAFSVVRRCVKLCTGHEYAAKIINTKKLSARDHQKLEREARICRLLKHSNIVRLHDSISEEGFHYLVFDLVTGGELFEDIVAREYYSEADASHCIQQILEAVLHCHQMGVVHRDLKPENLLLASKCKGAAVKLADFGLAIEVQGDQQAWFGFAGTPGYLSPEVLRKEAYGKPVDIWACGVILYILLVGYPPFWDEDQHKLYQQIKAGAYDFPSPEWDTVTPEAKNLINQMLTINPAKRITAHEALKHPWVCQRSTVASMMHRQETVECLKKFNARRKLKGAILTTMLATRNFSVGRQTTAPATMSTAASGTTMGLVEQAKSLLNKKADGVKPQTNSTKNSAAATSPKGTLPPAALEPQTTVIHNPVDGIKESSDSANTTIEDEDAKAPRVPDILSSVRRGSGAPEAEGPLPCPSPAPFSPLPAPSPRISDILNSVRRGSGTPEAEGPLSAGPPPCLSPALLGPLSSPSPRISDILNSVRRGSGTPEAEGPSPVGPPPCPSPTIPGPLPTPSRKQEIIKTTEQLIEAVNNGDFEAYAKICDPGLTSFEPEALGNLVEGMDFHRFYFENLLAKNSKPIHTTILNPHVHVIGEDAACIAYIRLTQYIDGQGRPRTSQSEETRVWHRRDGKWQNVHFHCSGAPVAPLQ
# Chain of Mitogen-activated protein kinase kinase kinase 9 (Homo sapiens) (P80192 whole entry, looked up, the tested form may be a part): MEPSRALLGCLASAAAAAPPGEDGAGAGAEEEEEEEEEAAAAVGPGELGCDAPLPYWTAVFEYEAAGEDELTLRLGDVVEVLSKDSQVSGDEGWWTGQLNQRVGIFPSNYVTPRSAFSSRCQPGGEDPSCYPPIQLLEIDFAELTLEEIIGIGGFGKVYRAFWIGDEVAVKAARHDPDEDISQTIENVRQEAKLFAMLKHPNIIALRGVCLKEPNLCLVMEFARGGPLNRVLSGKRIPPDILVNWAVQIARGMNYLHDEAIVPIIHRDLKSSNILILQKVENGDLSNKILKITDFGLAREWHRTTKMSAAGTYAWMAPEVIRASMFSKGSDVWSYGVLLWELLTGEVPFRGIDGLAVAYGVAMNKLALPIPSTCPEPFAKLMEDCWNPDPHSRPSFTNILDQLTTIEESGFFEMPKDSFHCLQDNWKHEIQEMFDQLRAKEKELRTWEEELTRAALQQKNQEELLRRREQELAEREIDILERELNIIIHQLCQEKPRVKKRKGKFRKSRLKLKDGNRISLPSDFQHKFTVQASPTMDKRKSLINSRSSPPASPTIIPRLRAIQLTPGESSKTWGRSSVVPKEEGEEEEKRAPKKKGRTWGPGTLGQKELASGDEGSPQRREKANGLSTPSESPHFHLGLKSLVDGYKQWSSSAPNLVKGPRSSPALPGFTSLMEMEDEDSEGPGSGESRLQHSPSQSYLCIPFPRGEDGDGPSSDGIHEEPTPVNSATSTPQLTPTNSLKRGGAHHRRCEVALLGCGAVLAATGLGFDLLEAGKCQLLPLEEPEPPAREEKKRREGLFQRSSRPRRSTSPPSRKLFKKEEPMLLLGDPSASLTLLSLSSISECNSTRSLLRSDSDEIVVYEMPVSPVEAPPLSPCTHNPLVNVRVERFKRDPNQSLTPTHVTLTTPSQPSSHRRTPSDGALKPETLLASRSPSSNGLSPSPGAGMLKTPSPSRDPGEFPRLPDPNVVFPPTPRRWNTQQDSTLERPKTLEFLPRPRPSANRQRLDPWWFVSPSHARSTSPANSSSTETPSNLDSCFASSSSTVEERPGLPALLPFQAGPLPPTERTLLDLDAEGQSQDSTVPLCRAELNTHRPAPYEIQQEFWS
# Chain of G protein-coupled receptor kinase 3 (Homo sapiens) (P35626 whole entry): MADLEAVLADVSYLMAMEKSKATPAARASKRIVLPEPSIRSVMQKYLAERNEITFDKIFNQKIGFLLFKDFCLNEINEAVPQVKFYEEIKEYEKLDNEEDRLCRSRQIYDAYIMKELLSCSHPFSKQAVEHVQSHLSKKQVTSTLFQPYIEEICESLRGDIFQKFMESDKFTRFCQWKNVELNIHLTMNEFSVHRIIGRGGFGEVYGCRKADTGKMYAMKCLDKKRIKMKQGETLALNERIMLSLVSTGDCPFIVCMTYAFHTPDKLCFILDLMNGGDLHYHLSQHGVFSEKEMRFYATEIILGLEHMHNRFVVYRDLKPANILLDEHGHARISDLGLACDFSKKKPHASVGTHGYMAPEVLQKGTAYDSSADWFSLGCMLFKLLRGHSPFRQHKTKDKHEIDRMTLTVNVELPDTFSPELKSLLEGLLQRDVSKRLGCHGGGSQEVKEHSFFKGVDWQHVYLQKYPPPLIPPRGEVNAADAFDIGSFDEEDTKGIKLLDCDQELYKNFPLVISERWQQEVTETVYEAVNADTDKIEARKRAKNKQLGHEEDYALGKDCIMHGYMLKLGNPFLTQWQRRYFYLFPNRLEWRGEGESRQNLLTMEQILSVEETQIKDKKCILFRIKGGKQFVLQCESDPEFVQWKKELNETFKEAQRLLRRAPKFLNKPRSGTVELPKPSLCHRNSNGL
# Chain of Ephrin type-B receptor 2 (Homo sapiens) (P29323 whole entry, the tested form may be a part): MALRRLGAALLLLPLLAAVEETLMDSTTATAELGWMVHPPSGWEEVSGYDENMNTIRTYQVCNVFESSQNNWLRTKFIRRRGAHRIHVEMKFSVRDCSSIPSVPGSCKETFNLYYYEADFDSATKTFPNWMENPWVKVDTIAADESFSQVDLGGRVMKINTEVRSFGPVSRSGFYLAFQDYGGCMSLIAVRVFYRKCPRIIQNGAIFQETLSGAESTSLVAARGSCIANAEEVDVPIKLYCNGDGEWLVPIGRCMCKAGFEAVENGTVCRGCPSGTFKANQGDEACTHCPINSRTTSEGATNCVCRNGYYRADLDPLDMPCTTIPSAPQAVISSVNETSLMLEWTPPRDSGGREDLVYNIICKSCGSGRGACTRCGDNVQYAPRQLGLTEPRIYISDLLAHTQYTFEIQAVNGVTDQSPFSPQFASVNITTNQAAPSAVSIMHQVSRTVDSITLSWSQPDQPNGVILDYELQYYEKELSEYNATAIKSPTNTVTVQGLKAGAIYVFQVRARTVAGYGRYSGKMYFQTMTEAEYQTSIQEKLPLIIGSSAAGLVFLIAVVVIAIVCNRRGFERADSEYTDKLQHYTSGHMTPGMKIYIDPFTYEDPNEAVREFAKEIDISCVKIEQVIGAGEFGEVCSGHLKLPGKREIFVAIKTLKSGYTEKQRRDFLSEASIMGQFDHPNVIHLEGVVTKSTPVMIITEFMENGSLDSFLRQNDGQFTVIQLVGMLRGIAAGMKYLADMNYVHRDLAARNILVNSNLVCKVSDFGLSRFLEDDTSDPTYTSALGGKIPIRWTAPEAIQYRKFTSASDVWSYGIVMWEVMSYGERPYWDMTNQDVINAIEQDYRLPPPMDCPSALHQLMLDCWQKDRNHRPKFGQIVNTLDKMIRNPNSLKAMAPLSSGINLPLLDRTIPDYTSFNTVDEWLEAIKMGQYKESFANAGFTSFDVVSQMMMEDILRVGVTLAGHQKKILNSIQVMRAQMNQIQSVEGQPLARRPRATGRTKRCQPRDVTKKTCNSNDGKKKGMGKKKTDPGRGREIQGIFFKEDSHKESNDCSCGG
# Chain of RAC-gamma serine/threonine-protein kinase (Homo sapiens) (Q9Y243 whole entry, the tested form may be a part): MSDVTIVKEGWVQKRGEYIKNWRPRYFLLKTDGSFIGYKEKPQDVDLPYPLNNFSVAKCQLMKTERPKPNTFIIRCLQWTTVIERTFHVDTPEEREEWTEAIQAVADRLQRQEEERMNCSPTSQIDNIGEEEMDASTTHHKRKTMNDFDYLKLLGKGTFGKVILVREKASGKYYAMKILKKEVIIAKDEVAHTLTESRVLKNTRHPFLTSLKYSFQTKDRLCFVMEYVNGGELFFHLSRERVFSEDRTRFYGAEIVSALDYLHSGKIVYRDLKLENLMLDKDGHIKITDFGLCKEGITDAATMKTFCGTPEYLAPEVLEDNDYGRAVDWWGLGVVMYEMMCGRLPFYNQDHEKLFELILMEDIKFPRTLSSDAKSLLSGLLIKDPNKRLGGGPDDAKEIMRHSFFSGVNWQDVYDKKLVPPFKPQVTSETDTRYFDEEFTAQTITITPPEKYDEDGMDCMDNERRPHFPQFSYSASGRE
# Chain of Casein kinase I isoform alpha (Homo sapiens) (P48729 2-337 limits assumed): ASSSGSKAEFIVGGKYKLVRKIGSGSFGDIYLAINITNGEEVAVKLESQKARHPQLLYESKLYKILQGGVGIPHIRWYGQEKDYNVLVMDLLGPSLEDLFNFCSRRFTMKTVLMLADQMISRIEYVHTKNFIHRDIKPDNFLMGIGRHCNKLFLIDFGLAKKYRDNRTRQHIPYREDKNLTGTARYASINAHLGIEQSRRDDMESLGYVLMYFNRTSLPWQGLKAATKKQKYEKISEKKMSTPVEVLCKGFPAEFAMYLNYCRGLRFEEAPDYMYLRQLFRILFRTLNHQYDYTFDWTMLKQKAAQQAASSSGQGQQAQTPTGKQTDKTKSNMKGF
compound,measurement,setting,value
CC1=Nc2c(F)cc(-c3nc(Nc4ccc(C5CCN(C)CC5)cn4)ncc3F)cc2C12CCCC2 [CROZBACICLIB],half-life,[1],8.5 h
same,inhibition,[2],25%
same,inhibition,[3],-3%
same,inhibition,[4],56%
same,inhibition,[5],0%
same,inhibition,[6],4%
same,inhibition,[7],-3%
same,inhibition,[8],-3%
same,inhibition,[9],2%
same,inhibition,[10],107%
same,inhibition,[11],25%
same,inhibition,[12],28%
same,inhibition,[13],87%
same,inhibition,[14],5%
same,inhibition,[15],6%
same,inhibition,[16],3%
same,inhibition,[17],-7%
same,inhibition,[18],24%
same,inhibition,[19],13%
same,inhibition,[20],28%
same,inhibition,[21],10%
same,inhibition,[22],8%
same,inhibition,[23],0%
same,inhibition,[24],0%
same,Cmax,[25],134 ng/mL
same,bioavailability,[26],75%
same,AUC(0-inf),[27],9110 ng·h/mL
same,inhibition in vivo at 3.125 mg/kg,[28],62%
same,ILS at 12.5 mg/kg,[29],48%
same,Activity,[30],Non-Toxic
same,inhibition,[31],5%
